Source: ChEMBL document CHEMBL4308860, “Nature-inspired development of unnatural meroterpenoids as the non-toxic anti-colon cancer agents” (Eur J Med Chem, 2018)
Calls of active or inactive are those of the source. The calls are words filed in the database; no cut-off is given here.

Experiments:
[1] = system: HT-29; assay: Antiproliferative activity against human HT-29 cells assessed as inhibition of cell proliferation at 25 uM after 72 hrs by MTT assay; assay type: functional; conditions: HT-29, 72 h
[2] = system: HT-29; assay: Antiproliferative activity against human HT-29 cells assessed as inhibition of cell proliferation after 72 hrs by MTT assay; assay type: functional, cell-based; conditions: for IC50: HT-29, 72 h
[3] = system: L132; assay: Antiproliferative activity against human L-132 cells up to 25 uM after 72 hrs by MTT assay; assay type: cell-based; conditions: l132, 72 h
[4] = system: HT-29; assay: Down regulation of survivin level in human HT-29 cells up to 25 uM after 48 hrs by Western blot analysis; assay type: functional, cell-based
[5] = system: HT-29; assay: Down regulation of COX-2 level in human HT-29 cells up to 25 uM after 48 hrs by Western blot analysis; assay type: functional, cell-based
[6] = system: HT-29; assay: Cell cycle arrest in human HT-29 cells assessed as accumulation at S phase up to 7 uM after 48 hrs by propidium iodide/RNase staining based flow cytometric analysis; assay type: functional
[7] = system: HT-29; assay: Induction of apoptosis in human HT-29 cells assessed as increase in apoptotic body formation up to 25 uM after 72 hrs by calcein-AM/ethidium homodimer-1 staining-based fluorescence microscopic analysis; assay type: functional, cell-based
[8] = system: HT-29; assay: Cytotoxicity against human HT-29 cells assessed as increase in cell death after 72 hrs by Propidium iodide staining-based flow cytometric analysis; assay type: functional
[9] = system: HT-29; assay: Cell cycle arrest in human HT-29 cells assessed as accumulation at S phase up to 5 uM after 48 hrs by propidium iodide/RNase staining based flow cytometric analysis; assay type: functional
[10] = system: HT-29; assay: Cell cycle arrest in human HT-29 cells assessed as accumulation at S phase up to 10 uM after 48 hrs by propidium iodide/RNase staining based flow cytometric analysis; assay type: functional
[11] = system: HT-29; assay: Cell cycle arrest in human HT-29 cells assessed as accumulation at G2/M phase up to 15 uM after 48 hrs by propidium iodide/RNase staining based flow cytometric analysis; assay type: functional
[12] = system: HT-29; assay: Cytotoxicity against human HT-29 cells assessed as cell death at 50 uM after 72 hrs by Propidium iodide staining-based flow cytometric analysis relative to control; assay type: functional
[13] = system: HT-29; assay: Cell cycle arrest in human HT-29 cells assessed as accumulation at G2/M phase up to 10 uM after 48 hrs by propidium iodide/RNase staining based flow cytometric analysis; assay type: functional
[14] = system: HT-29; assay: Cell cycle arrest in human HT-29 cells assessed as accumulation at G0/G1 phase up to 5 uM after 48 hrs by propidium iodide/RNase staining based flow cytometric analysis; assay type: functional

| Compound | inhibition at 25 µM [1] [%] | Activity [2] | IC50 [2] [µM] | Activity [3] | Activity [4] | Activity [5] | Activity [8] | Activity [12] [%] | other results |
| --- | --- | --- | --- | --- | --- | --- | --- | --- | --- |
| CC1(C)CC[C@@H]2c3ccccc3C[C@]3(C)CCC[C@@H]1[C@H]23 | 22.4 |  |  |  |  |  |  |  |  |
| CC1(C)CC[C@@H]2c3cc(O)c(O)cc3C[C@]3(C)CCC[C@@H]1[C@H]23 | 142 | Dose-dependent effect | 7.5 | Non-Toxic | Active | Active | Dose-dependent effect |  | Activity [6]: Active; Activity [7]: Active |
| COc1ccc(C[C@]2(O)CCC[C@H]3C(C)(C)[C@@H](O)CC[C@@]32C)cc1 | -3.48 |  |  |  |  |  |  |  |  |
| COc1ccc(CC2(O)CCC[C@@H]3CCCC[C@@H]32)cc1 (some centres undefined) | 0.56 |  |  |  |  |  |  |  |  |
| O=c1[nH]cc(F)c(=O)[nH]1 [FLUOROURACIL] |  | Dose-dependent effect | 6.5 | Non-Toxic |  |  | inactive |  | Activity [9]: Active |
| CC1(C)CC[C@@H]2c3cccc(O)c3C[C@]3(C)CCC[C@@H]1[C@H]23 | 39.1 |  |  |  |  |  |  |  |  |
| CC1(C)CC[C@@H]2c3ccc(O)c(O)c3C[C@]3(C)CCC[C@@H]1[C@H]23 | 118 | Dose-dependent effect | 16.5 | Non-Toxic | Active | Active | Dose-dependent effect |  | Activity [10]: Active |
| CC1(C)CC[C@@H]2c3cc(O)ccc3C[C@@]3(C)[C@@H]2[C@H]1CCC3(C)C | 97.5 | Dose-dependent effect | 15 | Non-Toxic | Active | Active | Dose-dependent effect | >50 | Activity [11]: Active; Activity [7]: Active |
| CC(C)(C)c1ccc2c(c1)[C@H]1CCC(C)(C)[C@@H]3CCC[C@@](C)(C2)[C@@H]13 | -1.89 |  |  |  |  |  |  |  |  |
| CC1(C)CC[C@@H]2c3cc(O)ccc3C[C@]3(C)CCC[C@@H]1[C@H]23 | 114 | Dose-dependent effect | 16 | Non-Toxic | Active | Active | Dose-dependent effect | >50 | Activity [10]: Active |
| CC1(C)CC[C@@H]2c3ccc(O)cc3C[C@]3(C)CCC[C@@H]1[C@H]23 | 112 | Dose-dependent effect | 20.5 | Non-Toxic |  |  | Dose-dependent effect | >50 | Activity [13]: Active |
| Cc1ccc(C[C@]2(O)CCC[C@H]3C(C)(C)CCC[C@@]32C)cc1 | 13 |  |  |  |  |  |  |  |  |
| C[C@@H]1CC[C@@H]2C3=C(C[C@]4(C)CCC[C@@H]1[C@H]24)C(=O)C=CC3=O | 71.8 | Dose-dependent effect | 8 | Non-Toxic | Active | Active | Dose-dependent effect | >50 | Activity [14]: Active; Activity [7]: Active |
| C[C@@H]1CC[C@H]2C(C)(C)[C@@H](O)CC[C@]2(C)C1(O)Cc1ccccc1O (some centres undefined) | -1.89 |  |  |  |  |  |  |  |  |
| CC1(C)CC[C@@H]2C3=C(C[C@]4(C)CCC[C@@H]1[C@H]24)C(=O)C=CC3=O | 124 | Dose-dependent effect | 14.5 | Non-Toxic | Active | Active | Dose-dependent effect | >50 | Activity [10]: Active |
